Counter-ions that a name gives are not always drawn. Like-named read-outs stand apart in the source and are kept apart here.
How the values were obtained:
[1] = system: SARS-CoV-2; experiment: Anti-SARS-CoV-2 activity in A549 cells expressing the human ACE2 receptor (inhibition of SARS-CoV-2 replication); format: cell-based; settings: for EC50: read-out: Antiviral Activity (EC50); for antiviral potency in A549 cells in comparison with compound Ref-2: versus Ref-2 (FIG. 7)
[2] = target: SARS-CoV-2 3CLpro (Severe acute respiratory syndrome coronavirus 2, UniProt P0DTD1); experiment: biochemical; settings: inhibition of SARS-CoV-2 3CLpro; 15 nM 3CLpro, 25 μM fluorogenic substrate, 37° C.; read-out: Inhibitory Activity (IC50)
[3] = Severe acute respiratory syndrome coronavirus 2, A549-ACE2, 24 h

CNC(=O)c1cc(Br)cc([N+](=O)[O-])c1NC(C(C)C)C1CN(C(=O)c2cncc3ccccc23)C1 (stereo in doubt) [Compound 12, (S)-5-bromo-2-((1-(1-(isoquinoline-4-carbonyl)azetidin-3-yl)-2-methylpropyl)amino)-N-methyl-3-nitrobenzamide]
EC50 [1, 3]: < 100 nM
IC50 [2]: < 100 nM

O=C(NC1CCOC1)c1cc(Cl)cc([N+](=O)[O-])c1N[C@H]1CN(C(=O)c2cncc3ccccc23)CCC1(F)F (stereo in doubt) [Compound 159, 5-chloro-2-(((S)-4,4-difluoro-1-(isoquinoline-4-carbonyl)piperidin-3-yl)amino)-3-nitro-N-((S)-tetrahydrofuran-3-yl)benzamide]
EC50 ([1]; inhibition of SARS-CoV-2 replication in mammalian cells, A549-ACE2 cells, 24 hours infection): < 100 nM

CNC(=O)c1cc(Br)cc([N+](=O)[O-])c1N[C@@H]1CCCC[C@@H]1NC(=O)c1cccnc1 [Compound 1, N-((1S, 2R)-2-((4-bromo-2-(methylcarbamoyl)-6-nitrophenyl)amino)cyclohexyl)nicotinamide]
EC50 [1, 3]: 1000 to 10000 nM
IC50 [2]: 100 to 1000 nM

CNC(=O)c1cc(Br)cc([N+](=O)[O-])c1N[C@@H]1CCCC[C@@H]1NC(=O)C[C@@H]1CCNC1=O [Compound 7, 5-bromo-N-methyl-3-nitro-2-(((1R, 2S)-2-(2-((S)-2-oxopyrrolidin-3-yl)acetamido)cyclohexyl)amino)benzamide]
EC50 [1, 3]: > 10000 nM
IC50 [2]: 1000 to 10000 nM

CNC(=O)c1cc(Br)cc([N+](=O)[O-])c1N[C@@H]1CCCC[C@@H]1NC(=O)c1cncc2cc(F)ccc12 [Compound 8, N-((1S, 2R)-2-((4-bromo-2-(methylcarbamoyl)-6-nitrophenyl)amino)cyclohexyl)-7-fluoroisoquinoline-4-carboxamide]
EC50 [1, 3]: 100 to 1000 nM
IC50 [2]: < 100 nM

CNC(=O)c1cc(Br)cc([N+](=O)[O-])c1N[C@@H]1CCCC[C@@H]1NC(=O)c1cncc2ccc(F)cc12 [Compound 9, N-((1S, 2R)-2-((4-bromo-2-(methylcarbamoyl)-6-nitrophenyl)amino)cyclohexyl)-6-fluoroisoquinoline-4-carboxamide]
EC50 [1, 3]: 100 to 1000 nM
IC50 [2]: < 100 nM

CNC(=O)c1cc(Br)cc([N+](=O)[O-])c1NC1CC2(C1)CN(C(=O)c1cncc3ccccc13)C2 [Compound 13, 5-bromo-2-((2-(isoquinoline-4-carbonyl)-2-azaspiro[3.3]heptan-6-yl)amino)-N-methyl-3-nitrobenzamide]
EC50 [1, 3]: > 10000 nM
IC50 [2]: ≥ 10000 nM

O=C(N[C@H]1CCCC[C@H]1Nc1c(C(=O)N2CC(F)(F)C2)cc(Br)cc1[N+](=O)[O-])c1cncc2ccccc12 [Compound 14, N-((1S, 2R)-2-((4-bromo-2-(3,3-difluoroazetidine-1-carbonyl)-6-nitrophenyl)amino)cyclohexyl)isoquinoline-4-carboxamide]
EC50 [1, 3]: 100 to 1000 nM
IC50 [2]: 100 to 1000 nM

O=C(NC1(C(F)(F)F)CC1)c1cc(Br)cc([N+](=O)[O-])c1N[C@@H]1CCCC[C@@H]1NC(=O)c1cncc2ccccc12 [Compound 16, N-((1S, 2R)-2-((4-bromo-2-nitro-6-((1-(trifluoromethyl)cyclopropyl)carbamoyl)phenyl)amino)cyclohexyl)isoquinoline-4-carboxamide]
EC50 [1, 3]: 1000 to 10000 nM
IC50 [2]: 100 to 1000 nM

CNC(=O)c1cc(Br)cc([N+](=O)[O-])c1NC1CN(C(=O)c2cncc3ccccc23)CC1(F)F (stereo not shown) [Compound 18, 5-bromo-2-((4,4-difluoro-1-(isoquinoline-4-carbonyl)pyrrolidin-3-yl)amino)-N-methyl-3-nitrobenzamide]
EC50 [1, 3]: 100 to 1000 nM
IC50 [2]: 100 to 1000 nM

O=C(NC1CC(F)(F)C1)c1cc(Br)cc([N+](=O)[O-])c1N1CCC2(CCN(C(=O)c3cncc4ccccc34)C2)C1 (stereo not shown) [Compound 26, 5-bromo-N-(3,3-difluorocyclobutyl)-2-(7-(isoquinoline-4-carbonyl)-2,7-diazaspiro[4.4]nonan-2-yl)-3-nitrobenzamide]
EC50 [1, 3]: 100 to 1000 nM
IC50 [2]: < 100 nM

O=C(NC1CC(F)(F)C1)c1cc(Br)cc([N+](=O)[O-])c1N1CCC2(CN(C(=O)c3cncc4ccccc34)CC2(F)F)C1 (stereo not shown) [Compound 27, 5-bromo-2-(9,9-difluoro-7-(isoquinoline-4-carbonyl)-2,7-diazaspiro[4. 4]nonan-2-yl)-N-(3,3-difluorocyclobutyl)-3-nitrobenzamide]
EC50 [1, 3]: 100 to 1000 nM
IC50 [2]: < 100 nM

O=C(NC1CC(F)(F)C1)c1cc(Cl)cc([N+](=O)[O-])c1N[C@@H]1COCC[C@@H]1NC(=O)c1cncc2ccccc12 [Compound 29, N-((3S, 4S)-3-((4-chloro-2-((3,3-difluorocyclobutyl)carbamoyl)-6-nitrophenyl)amino)tetrahydro-2H-pyran-4-yl)isoquinoline-4-carboxamide]
antiviral potency in A549 cells in comparison with compound Ref-2 [1]: better antiviral potency
EC50 [1, 3]: < 100 nM
IC50 [2]: < 100 nM

O=C(NC1CC(F)(F)C1)c1cc(Br)cc([N+](=O)[O-])c1N[C@H]1CN(C(=O)c2cncc3ccccc23)CCC1(F)F [Compound 33, (S)-5-bromo-2-((4,4-difluoro-1-(isoquinoline-4-carbonyl)piperidin-3-yl)amino)-N-(3,3-difluorocyclobutyl)-3-nitrobenzamide]
EC50 [1, 3]: < 100 nM
IC50 [2]: < 100 nM

O=C(NC1CC(F)(F)C1)c1cc(Br)cc([N+](=O)[O-])c1N[C@@H]1CCCN(C(=O)c2cncc3ccccc23)C1 [Compound 34, (R)-5-bromo-N-(3,3-difluorocyclobutyl)-2-((1-(isoquinoline-4-carbonyl)piperidin-3-yl)amino)-3-nitrobenzamide]
EC50 [1, 3]: < 100 nM
IC50 [2]: < 100 nM

CNC(=O)c1cc(Br)cc(C(F)(F)F)c1N[C@H]1CN(C(=O)c2cncc3ccccc23)CCC1(F)F [Compound 35, (S)-5-bromo-2-((4,4-difluoro-1-(isoquinoline-4-carbonyl)piperidin-3-yl)amino)-N-methyl-3-(trifluoromethyl)benzamide]
EC50 [1, 3]: < 100 nM
IC50 [2]: < 100 nM

O=C(c1cc(Br)cc([N+](=O)[O-])c1N[C@H]1CN(C(=O)c2cncc3ccccc23)CCC1(F)F)N1CC(F)(F)C1 [Compound 36, (S)-(5-bromo-2-((4,4-difluoro-1-(isoquinoline-4-carbonyl)piperidin-3-yl)amino)-3-nitrophenyl)(3,3-difluoroazetidin-1-yl)methanone]
EC50 [1, 3]: < 100 nM
IC50 [2]: < 100 nM

O=C(N[C@@H]1CCOC1)c1cc(Br)cc([N+](=O)[O-])c1N[C@H]1CN(C(=O)c2cncc3ccccc23)CCC1(F)F [Compound 37, 5-bromo-2-(((S)-4,4-difluoro-1-(isoquinoline-4-carbonyl)piperidin-3-yl)amino)-3-nitro-N-((R)-tetrahydrofuran-3-yl)benzamide]
antiviral potency in A549 cells in comparison with compound Ref-2 [1]: better antiviral potency
EC50 [1, 3]: < 100 nM
IC50 [2]: < 100 nM

CC(C)(O)CNC(=O)c1cc(Cl)cc([N+](=O)[O-])c1N[C@H]1CN(C(=O)c2cncc3ccccc23)CCC1(F)F [Compound 40, (S)-5-chloro-2-((4,4-difluoro-1-(isoquinoline-4-carbonyl)piperidin-3-yl)amino)-N-(2-hydroxy-2-methylpropyl)-3-nitrobenzamide]
EC50 [1, 3]: < 100 nM
IC50 [2]: < 100 nM

Cn1cc(NC(=O)c2cc(Cl)cc([N+](=O)[O-])c2N[C@H]2CN(C(=O)c3cncc4ccccc34)CCC2(F)F)cn1 [Compound 41, (S)-5-chloro-2-((4,4-difluoro-1-(isoquinoline-4-carbonyl)piperidin-3-yl)amino)-N-(1-methyl-1H-pyrazol-4-yl)-3-nitrobenzamide]
antiviral potency in A549 cells in comparison with compound Ref-2 [1]: better antiviral potency
EC50 [1, 3]: < 100 nM
IC50 [2]: < 100 nM

C=CCNC(=O)c1cc(Cl)cc([N+](=O)[O-])c1N[C@H]1CN(C(=O)c2cncc3ccccc23)CCC1(F)F [Compound 42, (S)-N-allyl-5-chloro-2-((4,4-difluoro-1-(isoquinoline-4-carbonyl)piperidin-3-yl)amino)-3-nitrobenzamide]
EC50 [1, 3]: < 100 nM
IC50 [2]: < 100 nM

O=C(c1cc(Cl)cc([N+](=O)[O-])c1N[C@H]1CN(C(=O)c2cncc3ccccc23)CCC1(F)F)N1CC(O)C1 [Compound 43, (S)-(5-chloro-2-((4,4-difluoro-1-(isoquinoline-4-carbonyl)piperidin-3-yl)amino)-3-nitrophenyl)(3-hydroxyazetidin-1-yl)methanone]
antiviral potency in A549 cells in comparison with compound Ref-2 [1]: better antiviral potency
IC50 [2]: < 100 nM

COC1CN(C(=O)c2cc(Cl)cc([N+](=O)[O-])c2N[C@H]2CN(C(=O)c3cncc4ccccc34)CCC2(F)F)C1 [Compound 44, (S)-(5-chloro-2-((4,4-difluoro-1-(isoquinoline-4-carbonyl)piperidin-3-yl)amino)-3-nitrophenyl)(3-methoxyazetidin-1-yl)methanone]
EC50 [1, 3]: < 100 nM
IC50 [2]: < 100 nM

CN1CC[C@@H](NC(=O)c2cc(Br)cc([N+](=O)[O-])c2N[C@H]2CN(C(=O)c3cncc4ccccc34)CCC2(F)F)C1 [Compound 45, 5-bromo-2-(((S)-4,4-difluoro-1-(isoquinoline-4-carbonyl)piperidin-3-yl)amino)-N-((R)-1-methylpyrrolidin-3-yl)-3-nitrobenzamide hydrochloride]
EC50 [1, 3]: < 100 nM
IC50 [2]: < 100 nM

O=C(N[C@@H]1CCOC1)c1cc(Br)cc(C(F)(F)F)c1N[C@H]1CN(C(=O)c2cncc3ccccc23)CCC1(F)F [Compound 182, 5-bromo-2-(((S)-4,4-difluoro-1-(isoquinoline-4-carbonyl)piperidin-3-yl)amino)-N-((R)-tetrahydrofuran-3-yl)-3-(trifluoromethyl)benzamide]
IC50 [2]: < 100 nM

CNC(=O)c1cc(Br)cc(C(F)(F)F)c1N[C@H]1CN(C(=O)c2cncc3ccccc23)CC[C@@H]1F [Compound 183, 5-bromo-2-(((3S, 4S)-4-fluoro-1-(isoquinoline-4-carbonyl)piperidin-3-yl)amino)-N-methyl-3-(trifluoromethyl)benzamide]
IC50 [2]: < 100 nM

From patent publication US20260315452A1, “PROTEASE INHIBITORS AND USES THEREOF” (priority 2023, published 2026)
